Experimental data reported in patent publication US5912266A, “Beta2 integrin cell adhesion molecule inhibitors” (American Home Products Corporation, priority 1997, dated 1999).
Where “and” joins values, the source holds several entries; their conditions need not be identical. Equal entries are not always repeated.

Tests used:
E-selectin = target: T1, E-selectin (Homo sapiens, UniProt P16581); assay: Adhesion of HL60 cells to recombinant, soluble, human E-selectin; type: cell-based; conditions: for Percent Cells Bound: single well
T1 construct: calcein-labelled HL60 cells adhere
T1 sequence (P16581 22-556 limits assumed): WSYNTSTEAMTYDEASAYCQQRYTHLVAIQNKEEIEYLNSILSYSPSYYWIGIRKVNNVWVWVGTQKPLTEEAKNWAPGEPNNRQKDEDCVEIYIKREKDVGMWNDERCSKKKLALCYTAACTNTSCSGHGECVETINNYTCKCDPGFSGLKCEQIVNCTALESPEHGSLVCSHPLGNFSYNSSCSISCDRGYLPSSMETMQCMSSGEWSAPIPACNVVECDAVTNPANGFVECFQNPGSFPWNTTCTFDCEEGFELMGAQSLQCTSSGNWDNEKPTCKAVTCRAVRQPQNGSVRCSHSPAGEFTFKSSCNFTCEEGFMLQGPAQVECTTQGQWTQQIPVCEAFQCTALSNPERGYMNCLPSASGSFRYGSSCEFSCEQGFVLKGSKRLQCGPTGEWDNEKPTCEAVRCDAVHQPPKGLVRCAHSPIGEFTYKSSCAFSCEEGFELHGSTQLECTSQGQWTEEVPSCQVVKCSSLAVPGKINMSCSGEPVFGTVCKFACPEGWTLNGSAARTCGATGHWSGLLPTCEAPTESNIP
Procedure: rsE-selectin was prepared and purified using standard molecular biology techniques. HL60 cells were obtained from American Type Culture Collection (ATCC) and maintained in culture media, as described in Example I, except that cells could be used in the assay at any passage number. Other materials required for the assay are as described in Examples I and II.
200 ng of purified, recombinant, soluble E-selectin contained in 100 μl of dPBS was added to wells of a flat bottom 96 well EIA/RIA plate. The control wells were filled with dPBS only and the assay plate was incubated at 4° C. for at least 18 hours to allow the rsE-selectin to bind to assay wells. The rsE-selectin solution was removed from the wells of the assay plate, washed, and blocked with 1% BSA, as described in Example II.
HL60 cells were harvested from culture, washed and labeled with calcein AM as outlined in Example I, except that the concentration of calcein used to label the HL-60 cells was 12.5 μM and cells were centrifuged at 1000 rpm for 5 minutes. After the final cell wash (see Example I), the cells were resuspended in ice-cold PMN buffer to 1.0×10^5 cells/40 μl and the cells were placed in the dark at room temperature until added to the assay plate.
The asperlin solutions were prepared as described in Example I. The dPBS remaining in the wells of the assay plate was removed by inverting the plate and tapping it on paper toweling and the assay was performed as described in Example II. 100 μl of PMN buffer was added to all wells of the assay plate and the fluorescence of the adherent HL-60 cells binding to rsE-selectin was measured using a fluorescent plate reader, described in Example I. The percentage of HL60 cells binding to E-selectin and the percentage of inhibition of HL60 cell adhesion to E-selectin in the presence of asperlin were also quantitated as described in Example II.

LFA-1 = assay: β2 integrin/ICAM-1 homotypic (cell:cell) binding of 8866 cells; type: cell-based, human
Description: The following experiment describes the inhibition of homotypic (cell:cell) binding of β2 and ICAM-1 expressing cells by asperlin. 8866 cells, a human B-cell line, were supplied by Athena Neurosciences (San Francisco, Calif.). These cells constitutively express both the β2 integrin referred to as LFA-1, and ICAM-1 on the cell surface. In culture, 8866 cells spontaneously bind, or clump together, as a result of β2 integrin binding to ICAM-1.
8866 cells were maintained in RPMI 1640 culture media (refer to Example I) supplemented with […] HEPES buffer (Gibco No. 15630-080). Cells were subcultured when the cell density was approximately 1×10^6 cells/ml. […]
8866 cells were harvested by centrifuging 5 minutes, at 1000 rpm, room temperature, in a Sorvall RT6000 centrifuge. The cell pellet was resuspended in culture media and cells were counted using a hemacytometer. […]
Asperlin was solubilized in 100% DMSO at a concentration of 20 mg/ml, 10 mg/ml, 5 mg/ml, and 2.5 mg/ml. […] The progression of homotypic binding was monitored by microscopic observations after 1 and 2 hours of incubation.
Inhibition β2 integrin dependent homotypic binding to ICAM-1 by asperlin was photographically recorded using a Nikon 35 mm camera attached to a Nikon Diaphot 300 inverted microscope (filter setting NCBII, objective 10×, and light setting of photo).

Average Percent Bound (E-selectin; Asperlin 100 μg/ml): 62%
Percent Cells Bound (E-selectin; Asperlin 100 μg/ml): 64% and 59%
Average Percent Bound (E-selectin; Asperlin 200 μg/ml): 48%
Percent Cells Bound (E-selectin; Asperlin 200 μg/ml): 52% and 44%
inhibition at 100 µg/mL (E-selectin; HL-60, Asperlin 100 μg/ml): -19%
inhibition at 200 µg/mL (E-selectin; HL-60, Asperlin 200 μg/ml): 8%
Compound: CC(=O)OC1C=CC(=O)OC1C1OC1C [Asperlin, 6,7-Anhydro-2,3,8-trideoxy-D-galacto-oct-2-enoic acidδ-lactone 4-acetate]
Bound Cell Fluorescence (E-selectin; Asperlin 100 μg/ml): 1412 fluorescence units/well and 1096 fluorescence units/well
Bound Cell Fluorescence (E-selectin; Asperlin 200 μg/ml): 1124 fluorescence units/well and 887 fluorescence units/well
Effect on E-selectin mediated HL60 cell binding (in words) (E-selectin; summary of Table III): does not inhibit E-selectin mediated HL60 cell binding
Inhibition of 8866 cell homotypic binding, visual inspection (in words) (LFA-1; after 1 hour of incubation): inhibit cell--cell binding in a dose dependent manner
Inhibition of 8866 cell homotypic binding, visual inspection (in words) (LFA-1; after 2 hours of incubation): inhibited 8866, β2 integrin mediated homotypic binding to ICAM-1 in a dose dependent manner
